Columns and labels:
Type in all cases: in vivo
[1] = system: canarygrass (Phalaris minor); test: Test D pre-/postemergence: canarygrass
Method in brief: (§1)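 Pre- and postemergence herbicide screen. Soil for pre: silt loam; post medium: peat moss, vermiculite, wetting agent, starter nutrients. Plant stage at post: 1- to 4-leaf. Readout: visual % control, 14–21 days.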

[2] = system: common (oilseed) sunflower (Helianthus annuus); test: Test C pre-/postemergence: sunflower; conditions: Preemergence
Method in brief: (§2)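 Preemergence on seeds in loam/sand, postemergence on 2–18 cm (1–4-leaf) plants in peat-based medium; compounds in non-phytotoxic solvent with surfactant. After 13–15 days in greenhouse, visual rating versus controls, 0 (no effect) to 100 (complete control).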

[3] = system: bermudagrass (Cynodon dactylon); test: Test C pre-/postemergence: bermudagrass
Method in brief: as §2

[4] = system: bromegrass, downy (downy bromegrass, Bromus tectorum); test: Test C pre-/postemergence: bromegrass, downy
Method in brief: as §2

[5] = system: barnyardgrass (Echinochloa crus-galli); test: Test B flooded paddy: barnyardgrass; conditions: Flood; 250 g ai/ha; applied to paddy water at 2-leaf stage; visually evaluated after 13 to 15 days
Method in brief: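 Flooded-pot test: compound dosed into 3 cm of standing water above soil when plants had two leaves. Visual control ratings (0–100) versus untreated plants after 13–15 d.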

[6] = system: oat, wild (wild oat, Avena fatua); test: Test D pre-/postemergence: oat, wild
Method in brief: as §1

[7] = system: deadnettle (henbit deadnettle, Lamium amplexicaule); test: Test D pre-/postemergence: deadnettle
Method in brief: as §1

[8] = system: lambsquarters (Chenopodium album); test: Test D pre-/postemergence: lambsquarters
Method in brief: as §1

[9] = Postemergence, 31 g ai/ha, scale 0 to 100 (0 no effect, 100 complete control)
[10] = Postemergence, 62 g ai/ha, scale 0 to 100 (0 no effect, 100 complete control)
[11] = Postemergence, 125 g ai/ha, scale 0 to 100, 0 no effect, 100 complete control
[12] = Postemergence, 250 g ai/ha, scale 0 to 100 (0 no effect, 100 complete control)
[13] = Postemergence, 16 g ai/ha, scale 0 to 100
[14] = Preemergence, 16 g ai/ha, scale 0 to 100 (0 no effect, 100 complete control)
[15] = Preemergence, 31 g ai/ha, scale 0 to 100 (0 no effect, 100 complete control)
[16] = Preemergence, 62 g ai/ha, scale 0 to 100
[17] = Preemergence, 125 g ai/ha, scale 0 to 100
[18] = Preemergence, 250 g ai/ha, scale 0 to 100
[19] = Postemergence, 250 g ai/ha, scale 0 to 100
[20] = Preemergence, 31 g ai/ha, scale 0 (no effect) to 100 (complete control)
[21] = Preemergence, 62 g ai/ha, scale of 0 to 100, 0 is no effect, 100 is complete control
[22] = Preemergence, 125 g ai/ha, scale 0 to 100, 0 no effect, 100 complete control
[23] = Preemergence, 250 g ai/ha, scale 0 to 100, 0 no effect, 100 complete control

Which “Plant response rating: Canarygrass” value [1, 9] does the source give for CCOc1nn(-c2ccc(F)cc2)nc1Cc1ccnc(C(F)F)c1 [Compound 195] here?
The value was 10.

What about the “Plant response rating: Canarygrass” value [1, 10] of the same compound?
The value was 20.

And the “Plant response rating: Canarygrass” value [1, 11]?
The value was 40.

And the “Plant response rating: Canarygrass” value [1, 12]?
The value was 55.

And the “Plant response rating, Canarygrass” value [1, 13]?
Its value is 10.

What about the “Plant response rating, Canarygrass” value [1, 14] of the same compound?
Its value is 0.

What about the “Plant response rating, Canarygrass” value [1, 15] of the same compound?
The value was 25.

What about the “Plant response rating, Canarygrass” value [1, 16] of the same compound?
Its value is 40.

What about the “Plant response rating, Canarygrass” value [1, 17] of the same compound?
Its value is 80.

What about the “Plant response rating, Canarygrass” value [1, 18] of the same compound?
Its value is 95.

What about the “Plant response rating, Sunflower” value ([2]; 31 g ai/ha, scale 0 (no effect) to 100 (complete control)) of the same compound?
The value was 0.

And the “Plant response rating, Sunflower” value ([2]; 62 g ai/ha, scale of 0 to 100, 0 is no effect, 100 is complete control)?
The value was 15.

And the “Plant response rating, Sunflower” value ([2]; 125 g ai/ha, scale 0 to 100, 0 no effect, 100 complete control)?
Its value is 15.

What about the “Plant response rating, Sunflower” value ([2]; 250 g ai/ha, scale 0 to 100, 0 no effect, 100 complete control) of the same compound?
Its value is 20.

And the “Plant response rating, Bermudagrass” value [3, 9]?
The value was 40.

And the “Plant response rating, Bermudagrass” value [3, 10]?
Its value is 60.

And the “Plant response rating, Bermudagrass” value [3, 11]?
The value was 90.

And the “Plant response rating, Bermudagrass” value [3, 19]?
Its value is 95.

And the “Plant response rating, Bermudagrass” value [3, 20]?
Its value is 98.

What about the “Plant response rating, Bermudagrass” value [3, 21] of the same compound?
Its value is 98.

And the “Plant response rating, Bermudagrass” value [3, 22]?
Its value is 98.

What about the “Plant response rating, Bermudagrass” value [3, 23] of the same compound?
The value was 98.

And the “Plant response rating, Bromegrass, Downy” value [4, 9]?
Its value is 15.

And the “Plant response rating, Bromegrass, Downy” value [4, 10]?
Its value is 30.

And the “Plant response rating, Bromegrass, Downy” value [4, 11]?
The value was 50.

What about the “Plant response rating, Bromegrass, Downy” value [4, 19] of the same compound?
The value was 60.

What about the “Plant response rating, Bromegrass, Downy” value [4, 20] of the same compound?
Its value is 15.

What about the “Plant response rating, Bromegrass, Downy” value [4, 21] of the same compound?
The value was 45.

What about the “Plant response rating, Bromegrass, Downy” value [4, 22] of the same compound?
The value was 85.

And the “Plant response rating, Bromegrass, Downy” value [4, 23]?
Its value is 90.

What about the “Plant response rating, Barnyardgrass (0 to 100 scale, 0 is no effect, 100 is complete control)” value [5] of the same compound?
Its value is 85.

And the “Plant response rating: Oat, Wild” value [6, 9]?
Its value is 20.

What about the “Plant response rating: Oat, Wild” value [6, 10] of the same compound?
Its value is 25.

What about the “Plant response rating: Oat, Wild” value [6, 11] of the same compound?
The value was 35.

And the “Plant response rating: Oat, Wild” value [6, 12]?
The value was 45.

And the “Plant response rating, Oat, Wild” value [6, 13]?
Its value is 10.

What about the “Plant response rating, Oat, Wild” value [6, 14] of the same compound?
The value was 0.

What about the “Plant response rating, Oat, Wild” value [6, 15] of the same compound?
Its value is 0.

And the “Plant response rating, Oat, Wild” value [6, 16]?
Its value is 0.

What about the “Plant response rating, Oat, Wild” value [6, 17] of the same compound?
The value was 75.

And the “Plant response rating, Oat, Wild” value [6, 18]?
The value was 75.

What about the “Plant response rating: Deadnettle” value [7, 9] of the same compound?
Its value is 65.

And the “Plant response rating: Deadnettle” value [7, 10]?
Its value is 75.

And the “Plant response rating: Deadnettle” value [7, 11]?
Its value is 75.

What about the “Plant response rating: Deadnettle” value [7, 12] of the same compound?
The value was 90.

What about the “Plant response rating, Deadnettle” value [7, 13] of the same compound?
Its value is 60.

And the “Plant response rating, Deadnettle” value [7, 14]?
Its value is 60.

And the “Plant response rating, Deadnettle” value [7, 15]?
The value was 60.

What about the “Plant response rating, Deadnettle” value [7, 16] of the same compound?
Its value is 60.

What about the “Plant response rating, Deadnettle” value [7, 17] of the same compound?
The value was 100.

And the “Plant response rating, Deadnettle” value [7, 18]?
The value was 100.

And the “Plant response rating: Lambsquarters” value [8, 9]?
The value was 75.

And the “Plant response rating: Lambsquarters” value [8, 10]?
Its value is 80.

What about the “Plant response rating: Lambsquarters” value [8, 11] of the same compound?
The value was 95.

And the “Plant response rating: Lambsquarters” value [8, 12]?
Its value is 100.

What about the “Plant response rating, Lambsquarters” value [8, 13] of the same compound?
Its value is 60.

What about the “Plant response rating, Lambsquarters” value [8, 14] of the same compound?
Its value is 0.

What about the “Plant response rating, Lambsquarters” value [8, 15] of the same compound?
The value was 0.

What about the “Plant response rating, Lambsquarters” value [8, 16] of the same compound?
The value was 0.

And the “Plant response rating, Lambsquarters” value [8, 17]?
The value was 30.

What about the “Plant response rating, Lambsquarters” value [8, 18] of the same compound?
Its value is 75.

From US9302999B2, “Substituted triazoles as herbicides” (E. I. DU PONT DE NEMOURS AND COMPANY, priority 2012, dated 2016)
